Results as given in ChEMBL document CHEMBL3612029, “Design, synthesis and anticancer activity of Michael-type thiol adducts of α-santonin analogue with exocyclic methylene” (Eur J Med Chem, 2015).

How the values were obtained:
[1] = tested on: PC-3; test: Cytotoxicity against human PC3 cells assessed as growth inhibition after 48 hrs by sulphorhodamine B assay; format: functional, cell-based; conditions: PC-3, 48 h
[2] = tested on: A549; test: Cytotoxicity against human A549 cells assessed as growth inhibition after 48 hrs by sulphorhodamine B assay; format: functional, cell-based; conditions: A549, 48 h
[3] = tested on: MCF7; test: Cytotoxicity against human MCF7 cells assessed as growth inhibition after 48 hrs by sulphorhodamine B assay; format: functional, cell-based; conditions: MCF7, 48 h
[4] = tested on: HCT-116; test: Cytotoxicity against human HCT116 cells assessed as growth inhibition after 48 hrs by sulphorhodamine B assay; format: functional, cell-based; conditions: HCT-116, 48 h
[5] = tested on: MCF7; test: Cell cycle arrest in human MCF7 cells assessed as accumulation at subG1 phase at 5 uM after 24 hrs by propidium iodide staining-based flow cytometric analysis (reference value: 4.8%); format: functional
[6] = target: Transcription factor p65 (Homo sapiens) (UniProt Q04206); test: Inhibition of NF-kappa-B p65 subunit binding to DNA response element in human MCF7 cell nuclear lysates at 2 uM after 24 hrs relative to control
Sequence of Transcription factor p65 (Homo sapiens) (Q04206 whole entry): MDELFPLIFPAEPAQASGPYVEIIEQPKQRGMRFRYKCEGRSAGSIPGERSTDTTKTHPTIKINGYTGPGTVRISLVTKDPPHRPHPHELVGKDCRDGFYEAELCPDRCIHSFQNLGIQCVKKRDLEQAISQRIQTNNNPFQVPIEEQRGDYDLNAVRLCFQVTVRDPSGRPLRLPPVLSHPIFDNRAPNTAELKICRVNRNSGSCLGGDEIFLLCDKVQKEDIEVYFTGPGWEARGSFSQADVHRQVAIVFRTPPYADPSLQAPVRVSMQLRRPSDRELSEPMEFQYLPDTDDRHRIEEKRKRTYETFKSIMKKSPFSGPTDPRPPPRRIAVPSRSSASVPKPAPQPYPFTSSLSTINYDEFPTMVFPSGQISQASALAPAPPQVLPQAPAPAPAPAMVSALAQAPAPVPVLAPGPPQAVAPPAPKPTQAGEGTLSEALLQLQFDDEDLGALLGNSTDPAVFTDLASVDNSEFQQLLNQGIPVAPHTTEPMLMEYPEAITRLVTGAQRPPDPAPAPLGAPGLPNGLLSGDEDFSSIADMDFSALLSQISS

[7] = tested on: MCF7; test: Cell cycle arrest in human MCF7 cells assessed as accumulation at subG1 phase at 1.5 uM after 24 hrs by propidium iodide staining-based flow cytometric analysis (reference value: 4.8%); format: functional
[8] = tested on: MCF7; test: Cell cycle arrest in human MCF7 cells assessed as accumulation at subG1 phase at 1 uM after 24 hrs by propidium iodide staining-based flow cytometric analysis (reference value: 4.8%); format: functional
[9] = target: Transcription factor p65 (Homo sapiens) (UniProt Q04206); test: Inhibition of NF-kappa-B p65 subunit binding to DNA response element in human MCF7 cell nuclear lysates after 24 hrs
[10] = target: Transcription factor p65 (Homo sapiens) (UniProt Q04206); test: Inhibition of NF-kappa-B p65 subunit binding to DNA response element in human MCF7 cell nuclear lysates at 1.5 uM after 24 hrs relative to control
[11] = tested on: MCF7; test: Cell cycle arrest in human MCF7 cells assessed as accumulation at subG1 phase after 24 hrs by propidium iodide staining-based flow cytometric analysis; format: functional
[12] = target: Transcription factor p65 (Homo sapiens) (UniProt Q04206); test: Inhibition of NF-kappa-B p65 subunit binding to DNA response element in human MCF7 cell nuclear lysates at 1 uM after 24 hrs relative to control
[13] = target: Transcription factor p65 (Homo sapiens) (UniProt Q04206); test: Inhibition of NF-kappa-B p65 subunit binding to DNA response element in human MCF7 cell nuclear lysates at 3 uM after 24 hrs relative to control
[14] = tested on: MCF7; test: Cell cycle arrest in human MCF7 cells assessed as accumulation at subG1 phase at 2 uM after 24 hrs by propidium iodide staining-based flow cytometric analysis (reference value: 4.8%); format: functional

Structure (SMILES) | IC50 [1] [µM] | IC50 [2] [µM] | IC50 [3] [µM] | IC50 [4] [µM] | also measured
CC1=C2[C@H]3OC(=O)[C@@H](CSc4ccccc4Br)[C@@H]3CC[C@@]2(C)C=CC1=O | 2.6 | 2.8 | 2.3 | 1.1 | 
CC1=C2[C@H]3OC(=O)[C@@H](CSc4ccc(F)c(F)c4)[C@@H]3CC[C@@]2(C)C=CC1=O | 2.9 | 5.9 | 1 | 0.7 | 
CC1=C2[C@H]3OC(=O)[C@@H](CSc4ccc(C)c(Br)c4)[C@@H]3CC[C@@]2(C)C=CC1=O | 31 | 4.1 | 20.2 | 0.8 | 
CC1=C2[C@H]3OC(=O)[C@@H](CSc4ccccc4Cl)[C@@H]3CC[C@@]2(C)C=CC1=O | 9.1 | 6.6 | 23.2 | 16.6 | 
CC[C@@]1(O)C(=O)OCc2c1cc1n(c2=O)Cc2cc3ccccc3nc2-1 [CAMPTOTHECIN] |  |  |  |  | Activity [5]: 52.4%
CC1=C2[C@H]3OC(=O)[C@@H](CSc4ccc(Br)cc4C)[C@@H]3CC[C@@]2(C)C=CC1=O | 8.5 | 10 | 8.5 | 1.4 | 
CC1=C2[C@H]3OC(=O)[C@@H](CSC4CCCCC4)[C@@H]3CC[C@@]2(C)C=CC1=O | > 50 | 45.2 | > 50 | > 50 | 
CC1=C2[C@H]3OC(=O)[C@@H](CSc4ccc(F)cc4)[C@@H]3CC[C@@]2(C)C=CC1=O | 4.5 | 1.1 | 7.3 | 0.8 | 
C=C1C(=O)O[C@@H]2C3=C(C)C(=O)C=C[C@]3(C)CC[C@@H]12 | 32.7 | > 50 | 25.2 | 31.5 | 
CC1=C2[C@H]3OC(=O)[C@@H](CSc4ncc[nH]4)[C@@H]3CC[C@@]2(C)C=CC1=O | 4.7 | 8.8 | 2.4 | 0.8 | 
CC1=C2[C@H]3OC(=O)[C@@H](CSc4ccc(Br)cc4)[C@@H]3CC[C@@]2(C)C=CC1=O | 1.5 | 2.4 | 0.6 | 1.2 | inhibition [6]: 57%; Activity [7]: 44.5%; Activity [8]: 36.8%; inhibition [9]: Dose-dependent effect; inhibition [10]: 45%; Activity [11]: Dose-dependent effect
CC1=C2[C@H]3OC(=O)[C@@H](CSc4nc5ccccc5c(=O)[nH]4)[C@@H]3CC[C@@]2(C)C=CC1=O | 31.1 | 18.3 | 17.2 | 20.3 | 
CC1=C2[C@H]3OC(=O)[C@@H](C)[C@@H]3CC[C@@]2(C)C=CC1=O [SANTONIN] | > 50 | > 50 | > 50 | > 50 | 
COc1ccccc1SC[C@@H]1C(=O)O[C@@H]2C3=C(C)C(=O)C=C[C@]3(C)CC[C@@H]12 | 40.7 | > 50 | 36.1 | 45.9 | 
CC1=C2[C@H]3OC(=O)[C@@H](CSc4ccccn4)[C@@H]3CC[C@@]2(C)C=CC1=O | 1.9 | 4.1 | 0.4 | 0.5 | Activity [7]: 44.6%; Activity [8]: 38%; inhibition [9]: Dose-dependent effect; inhibition [10]: 43%; inhibition [12]: 27%
CC1=C2[C@H]3OC(=O)[C@@H](CSc4ccccc4F)[C@@H]3CC[C@@]2(C)C=CC1=O | 2 | 1.8 | 1.2 | 0.9 | 
CC1=C2[C@H]3OC(=O)[C@@H](CSc4nc5ccccc5n4C)[C@@H]3CC[C@@]2(C)C=CC1=O | 34.9 | 42 | 39.2 | 20.7 | 
CC1=C2[C@H]3OC(=O)[C@@H](CSc4ccccc4C)[C@@H]3CC[C@@]2(C)C=CC1=O | 20.7 | 0.9 | 20.9 | 21.5 | 
CC1=C2[C@H]3OC(=O)[C@@H](CSc4ccc(C)cc4)[C@@H]3CC[C@@]2(C)C=CC1=O | 5.7 | 7.4 | 6 | 12.1 | 
CC1=C2[C@H]3OC(=O)[C@@H](CSc4ccccc4N)[C@@H]3CC[C@@]2(C)C=CC1=O | 10.8 | 30.7 | 7.8 | 13 | 
CCSC[C@@H]1C(=O)O[C@@H]2C3=C(C)C(=O)C=C[C@]3(C)CC[C@@H]12 | 9.9 | 12.2 | 23.5 | 16.5 | 
CC1=C2[C@H]3OC(=O)[C@@H](CSc4ccc(Cl)cc4)[C@@H]3CC[C@@]2(C)C=CC1=O | 2.1 | 2.7 | 1 | 0.8 | inhibition [6]: 49%; Activity [7]: 45.1%; inhibition [9]: Dose-dependent effect; inhibition [10]: 36%; inhibition [13]: 62%; Activity [14]: 46.6%; Activity [11]: Dose-dependent effect
COc1ccc(SC[C@@H]2C(=O)O[C@@H]3C4=C(C)C(=O)C=C[C@]4(C)CC[C@@H]23)cc1 | 13.1 | 8.9 | 21.4 | 24.9 | 
CC1=C2[C@H]3OC(=O)[C@@H](CSc4ccccc4)[C@@H]3CC[C@@]2(C)C=CC1=O | 25.9 | 19.8 | 25.2 | 19.1 | 
O=c1[nH]cc(F)c(=O)[nH]1 [FLUOROURACIL] |  |  |  | 4.5 | 
